pEC50, pIC50: −log10 of the molar value. Several values for one entry are separate records, joined by “and”; a condition that tells them apart may be missing. Equal values may be shown once.
Experiments:
SARS-CoV-2 Spike protein = SARS-CoV-2 Spike protein (Severe acute respiratory syndrome coronavirus 2, UniProt P0DTC2); test: Ternary binding of SARS-CoV-2 Spike protein (293T cells expressing Spike-GFP, IgG-AF647, flow cytometry); assay type: cell-based; details: 293T cells expressing Spike-GFP; IgG-AF647 10 μg/ml; repeat values/batches listed separately; read-out: SARS-CoV-2 Ternary binding EC50
Experimental: 293T cells stably expressing SARS-CoV-2 Spike-GFP protein on their surface were incubated with a concentration range of compound for 30 minutes at 37° C.-5% CO2 in Roswell Park Memorial Institute Medium (RPMI)-5% low IgG serum with 10 μg/ml IgG-Alexa Fluor® 647 (AF647). The cells were washed twice using the same medium, resuspended in phosphate-buffered saline (PBS)-1% bovine serum albumin (BSA), and acquired on Attune™ NxT Flow Cytometer. In some embodiments, mean fluorescence intensity of AF647 as well as […] AF647 positive in GFP positive gate are reported as readouts in this assay.

[1] = target: T1, SARS-CoV-2 Spike A (wild-type) (Severe acute respiratory syndrome coronavirus 2, UniProt P0DTC2); test: MSD ACE2 competition assay (inhibition of Spike binding with ACE2, ECL), A (wild-type); details: IC50 Wild Type, Wild Type Spike
T1 construct: purchased Meso Scale Diagnostics, LLC V-PLEX SARS-CoV-2 Panel 13 (ACE2) Kit / Panel 23 (ACE2) Kit

Row | Structure (SMILES) | pEC50 (SARS-CoV-2 Spike protein) | pIC50 [1]
1 | CC[C@H](C)[C@H](NC(=O)[C@H](CC(C)C)NC(=O)[C@H](CC(=O)O)NC(=O)[C@H](CO)NC(=O)[C@@H](NC(=O)[C@H](CCCNC(=N)N)NC(=O)[C@H](CCSC)NC(=O)[C@H](CO)NC(=O)[C@H](C)NC(=O)[C@H](CCC(=O)O)NC(=O)[C@H](C)NC(=O)[C@H](Cc1c[nH]cn1)NC(=O)CNC(=O)[C@H](CC(C)C)NC(=O)[C@H](CCC(=O)O)NC(=O)[C@H](CC(=O)O)NC(=O)[C@H](CC(C)C)NC(=O)[C@H](CC(C)C)NC(=O)[C@H](CCCNC(=N)N)NC(=O)[C@H](CCSC)NC(=O)[C@@H](NC(=O)[C@H](CCC(=O)O)NC(=O)[C@H](Cc1ccc(O)cc1)NC(=O)[C@@H](NC(=O)[C@H](CCCCN)NC(=O)[C@H](CCC(N)=O)NC(=O)[C@H](CC(C)C)NC(=O)[C@@H](NC(=O)[C@H](Cc1c[nH]c2ccccc12)NC(=O)[C@H](CCC(=O)O)NC(=O)[C@H](CCCCN)NC(=O)[C@@H](N)CC(=O)O)[C@@H](C)CC)[C@@H](C)CC)[C@@H](C)CC)C(C)C)C(=O)N[C@@H](Cc1ccc(O)cc1)C(=O)N[C@@H](CCC(=O)O)C(=O)N[C@@H](Cc1ccccc1)C(=O)N[C@@H](CCSC)C(=O)N[C@@H](CCCCN)C(=O)N[C@@H](CCCCN)C(=O)NCC(=O)N[C@@H](CCC(N)=O)C(=O)N[C@@H](C)C(=O)N1CCC[C@H]1C(=O)N[C@@H](CC(=O)O)C(=O)N[C@H]1CSSC[C@@H](C(=O)N[C@H](C(=O)O)[C@@H](C)O)NC(=O)[C@H](Cc2c[nH]c3ccccc23)NC(=O)[C@H](C(C)C)NC(=O)[C@H](CC(C)C)NC(=O)[C@H](CCC(=O)O)NC(=O)CNC(=O)[C@H](CC(C)C)NC(=O)[C@H](Cc2c[nH]cn2)NC(=O)[C@H](Cc2c[nH]c3ccccc23)NC(=O)[C@H](C)NC1=O [Compound 108] | 8.57 and 8.72 | 7.69
2 | CC[C@H](C)[C@H](NC(=O)[C@H](CC(C)C)NC(=O)[C@H](CC(=O)O)NC(=O)[C@H](CO)NC(=O)[C@@H](NC(=O)[C@H](CCCNC(=N)N)NC(=O)[C@H](CCSC)NC(=O)[C@H](CO)NC(=O)[C@H](C)NC(=O)[C@H](CCC(=O)O)NC(=O)[C@H](C)NC(=O)[C@H](Cc1c[nH]cn1)NC(=O)CNC(=O)[C@H](CC(C)C)NC(=O)[C@H](CCC(=O)O)NC(=O)[C@H](CC(=O)O)NC(=O)[C@H](CC(C)C)NC(=O)[C@H](CC(C)C)NC(=O)[C@H](CCCNC(=N)N)NC(=O)[C@H](CCSC)NC(=O)[C@@H](NC(=O)[C@H](CCC(=O)O)NC(=O)[C@H](Cc1ccc(O)cc1)NC(=O)[C@@H](NC(=O)[C@H](CCCCN)NC(=O)[C@H](CCC(N)=O)NC(=O)[C@H](CC(C)C)NC(=O)[C@@H](NC(=O)[C@H](Cc1c[nH]c2ccccc12)NC(=O)[C@H](CCC(=O)O)NC(=O)[C@H](CCCCN)NC(=O)[C@H](CC(=O)O)NC(C)=O)[C@@H](C)CC)[C@@H](C)CC)[C@@H](C)CC)C(C)C)C(=O)N[C@@H](Cc1ccc(O)cc1)C(=O)N[C@@H](CCC(=O)O)C(=O)N[C@@H](Cc1ccccc1)C(=O)N[C@@H](CCSC)C(=O)N[C@@H](CCCCN)C(=O)N[C@@H](CCCCN)C(=O)NCC(=O)N[C@@H](CCC(N)=O)C(=O)N[C@@H](C)C(=O)N1CCC[C@H]1C(=O)N[C@@H](CC(=O)O)C(=O)N[C@H]1CSSC[C@@H](C(=O)N[C@H](C(=O)O)[C@@H](C)O)NC(=O)[C@H](Cc2c[nH]c3ccccc23)NC(=O)[C@H](C(C)C)NC(=O)[C@H](CC(C)C)NC(=O)[C@H](CCC(=O)O)NC(=O)CNC(=O)[C@H](CC(C)C)NC(=O)[C@H](Cc2c[nH]cn2)NC(=O)[C@H](Cc2c[nH]c3ccccc23)NC(=O)[C@H](C)NC1=O [Compound 109] | 8.92 and 8.66 | 7.80

Reference: patent publication US20260306644A1, “ANTIBODY RECRUITING MOLECULES FOR THE TREATMENT OF CORONAVIRUS DISEASE-19” (priority 2023, published 2026)
